Among the data in patent publication US10106510B2, “Substituted isoxazoles for treating cancer” (EPIZYME, INC., priority 2014, dated 2018) are IC50 values, retold here.

Assay [1] concerns the target T1, SMYD3 (Homo sapiens (Human), UniProt Q9H7B4). Kind of assay: SMYD3 biochemical assay (SMYD3 enzyme assay on MEKK2 protein substrate, scintillation proximity assay). The conditions noted are these: 3H-SAM, SPA, IC50 values are an average of n = 1 to n = 50, read-out: SMYD3 Biochem IC50. From the text:
S-adenosylmethionine (SAM), S-adenosylhomocysteine (SAH), Tris, Tween20, dimethylsulfoxide (DMSO), bovine skin gelatin (BSG), and Tris(2-carboxyethyl)phosphine hydrochloride solution (TCEP) were purchased from Sigma-Aldrich at the highest level of purity possible. ^3H-SAM was purchase from American Radiolabeled Chemicals with a specific activity of 80 Ci/mmol. 384-well opaque white OptiPlates and SPA beads (Perkin Elmer, catalog # RPNQ0013) were purchased from PerkinElmer.
N-terminally GST-tagged MEKK2 (MAP3K2) protein corresponding to reference sequence AAF63496.3 was purchased from Life Technologies (catalog # PV4010). […] Protein identity was confirmed by MS/MS analysis after proteolytic digestion. The protein sequence used was:
Full-length human SMYD3 isoform 1 (BAB86333) was inserted into a modified pET21b plasmid containing a His6 tag and TEV and SUMO cleavage sites. Because two common variants of SMYD3 exist in the population, site directed mutagenesis was subsequently performed to change amino acid 13 from an asparagine to a lysine, resulting in plasmid pEPZ533.
E. coli (BL21 codonplus RIL strain, Stratagene) were transformed with plasmid pEPZ553 by mixing competent cells and plasmid DNA and incubating on ice for 30minutes followed by heat shock at 42° C. for 1 minute and cooling on ice for 2 minutes. Transformed cells were grown and selected on LB agar with 100 μg/mL ampicillin and 17 μg/mL chloramphenicol at 37° C. overnight. A single clone was used to inoculate 200 mL of LB medium with 100 μg/mL ampicillin and 17 μg/mL chloramphenicol and incubated at 37° C. on an orbital shaker at 180 rpm. Once in log growth, the culture was diluted 1:100 into 2 L of LB medium and grown until OD600 was about 0.3 after which the culture was incubated at 15° C. and 160 rpm. Once OD600 reached about 0.4, IPTG was added to a final concentration of 0.1 mM and the cells were grown overnight at 15° C. and 160 rpm. Cells were harvested by centrifugation at 8000 rpm, for 4 minutes at 4° C. and stored at −80° C. for purification.
The column was washed with Buffer B (Buffer A plus 20 mM imidazole) and His-tagged SMYD3 was eluted with Buffer C (Buffer A plus 300 mM imidazole). The His tag, TEV and SUMO cleavage sites were removed generating native SMYD3 by addition of ULP1 protein at a ratio of 1:200 (ULP1:SMYD3). Imidazole was removed by dialysis overnight in Buffer A. The dialyzed solution was applied to a second Nickel column and the native SMYD3 protein was collected from the column flow-through. The flow-through was dialyzed in Buffer D (25 mM Tris, 5% glycerol, 5 mM β-mercaptoethanol, 50 mM NaCl, pH7.8) and ULP1 was removed using a Q sepharose fast flow column.
General Procedure for SMYD3 Enzyme Assays on MEKK2 Protein Substrate
The assays were all performed in a buffer consisting of 25 mM Tris-Cl pH 8.0, 1 mM TCEP, 0.005% BSG, and 0.005% Tween 20, prepared on the day of use. Compounds in 100% DMSO (1 ul) were spotted into a 384-well white opaque OptiPlate using a Bravo automated liquid handling platform outfitted with a 384-channel head (Agilent Technologies). DMSO (1 ul) was added to Columns 11, 12, 23, 24, rows A-H for the maximum signal control and 1 ul of SAH, a known product and inhibitor of SMYD3, was added to columns 11, 12, 23, 24, rows I-P for the minimum signal control. A cocktail (40 ul) containing the SMYD3 enzyme was added by Multidrop Combi (Thermo-Fisher). The compounds were allowed to incubate with SMYD3 for 30 min at room temperature, then a cocktail (10 ul) containing SAM and MEKK2 was added to initiate the reaction (final volume=51 ul).
A general note: Scintillation proximity formats need no separation of bound from free tracer.

The target in assay [2] is T1, SMYD3. Kind of assay: SMYD3 cell assay (Trimethyl-MEKK2 In-Cell Western in 293T/17 cells). Type of assay: cell-based. The conditions noted are these: 293T/17 cells transfected with MEKK2-flag and SMYD3, trimethyl-MEKK2 In-Cell Western, 24 hours, top concentration 40 μM; average of n = 1 to n = 50. The text has this: Trimethyl-MEKK2-In-Cell Western Assay
293T/17 adherent cells were purchased from ATCC (American Type Culture Collection), Manassas, Va., USA. MEM/Glutamax medium, Optimem Reduced Serum medium, penicillin-streptomycin, 0.05% trypsin and 1×D-PBS were purchased from Life Technologies, Grand Island, N.Y., USA. PBS-10× was purchased from Ambion, Life Technologies, Grand Island, N.Y., USA. PBS with Tween 20 (PBST (10×)) was purchased from KPL, Gaithersburg, Md., USA. Tet System FBS-approved FBS US Source was purchased from Clontech, Mountain View, Calif., USA. Odyssey blocking buffer, 800 CW goat anti-rabbit IgG (H+L) antibody, 680 CW Goat anti-mouse IgG (H+L) and Licor Odyssey infrared scanner were purchased from Licor Biosciences, Lincoln, Nebr., USA. Tri-methyl-Lysine [A260]-MEKK2 antibody, MEKK2 and SMYD3 plasmids were made at Epizyme. Anti-flag monoclonal mouse antibody was purchased from Sigma, St. Louis, Mo., USA. Methanol was purchased from VWR, Franklin, Mass., USA. 10%) Tween 20 was purchased from KPL, Inc., Gaithersburg, Md., USA. Fugene was purchased from Promega, Madison, Wis., USA. The Biotek ELx405 was purchased from BioTek, Winooski, Vt., USA. The multidrop combi was purchased from Thermo Scientific, Waltham, Mass., USA.
293T/17 adherent cells were maintained in growth medium (MEM/Glutamax medium supplemented with 10% v/v Tet System FBS and cultured at 37° C. under 5% CO2.
Cell Treatment, In Cell Western (ICW) for Detection of Trimethyl-Lysine-MEKK2 and MEKK2
293T/17 cells were seeded in assay medium at a concentration of 33,333 cells per cm^2 in 30 mL medium per T150 flask and incubated at 37° C. under 5% CO2. Plasmids were prepared for delivery to cells by first mixing 1350 μL Opti-MEM with Fugene (81 μL) in a sterile Eppendorf and incubated for five minutes at room temperature (RT). MEKK2-flag (13.6 ug/T150) MEKK2 p3XFlag-CMV-14 with C-3XFlag and SMYD3 (0.151 ug/T150) SMYD3 p3XFlag-CMV-14 without C-3XFlag plasmids were aliquotted to a 1.7 mL sterile microfuge tube. The gene ID for MEKK2 and SMYD3 is NM_006609.3 and Q9H7B4, respectively. Entire volume of Opti-MEM/Fugene mixture was then added to a microfuge tube containing DNA plasmid, mixed and then incubated××15 minutes at RT. The medium on the 293T/17 cells was refreshed, and the DNA/Fugene complex is added aseptically to each flask, rocked gently, and incubated at 37 C for 5 hours. Medium was then removed, and cells were washed once with PBS in the flask. Trypsin 0.05% (3 mL) was added and cells incubated for three minutes. Room temperature MEM+10% Tet system FBS was added and cells were mixed gently, and counted using the Vi-cell. Cells were seeded at 100,000 cells/mL in 50 μL MEM/10% Tet FBS/Pen/Strep to a 384 well black/clear poly-D-lysine coated plate containing test agent diluted in DMSO. The final top concentration of test compound was 40 μM. […] Plates were incubated ×30 minutes at RT in low-airflow area, followed by incubation at 37° C. under 5% CO2 for 24 hours. Medium was aspirated from all wells of assay plates prior to fixation and permeabilization with ice cold (−20° C.) methanol (90 μL/well) for ten minutes. Plates were rinsed with PBS three times on BioTek ELx405. PBS was removed with a final aspiration, and Odyssey blocking buffer (50 μL/well) was added to each well and incubated for one hour at RT. Primary antibody solution was prepared (anti-trimethyl-MEKK2 at 1:600 dilution plus mouse anti-flag antibody at 1:10,000 dilution in diluent (Odyssey Blocking buffer+0.1% Tween 20)) and 20 μL per well was dispensed using the Multidrop Combi. Assay plates were then sealed with foil, and incubated overnight at 4° C. Plates were washed five times with PBS-Tween (IX) on Biotek ELx405 and blotted on paper towel to remove excess reagent. […]

What is called IC50 is the point on the concentration scale where inhibition reaches its midpoint.

T1 sequence (Q9H7B4 whole entry): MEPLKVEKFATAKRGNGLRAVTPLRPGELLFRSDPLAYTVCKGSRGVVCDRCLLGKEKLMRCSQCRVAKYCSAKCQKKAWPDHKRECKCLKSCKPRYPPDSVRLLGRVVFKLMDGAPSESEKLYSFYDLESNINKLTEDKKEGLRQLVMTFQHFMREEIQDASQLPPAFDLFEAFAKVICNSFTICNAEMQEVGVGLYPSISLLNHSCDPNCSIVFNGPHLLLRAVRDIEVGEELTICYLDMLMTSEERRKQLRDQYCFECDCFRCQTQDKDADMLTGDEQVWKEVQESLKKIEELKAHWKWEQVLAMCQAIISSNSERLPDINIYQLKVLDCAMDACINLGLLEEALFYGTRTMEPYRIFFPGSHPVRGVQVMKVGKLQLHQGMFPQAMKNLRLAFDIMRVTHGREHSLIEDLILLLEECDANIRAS

`O=C(CCN1CCCC1)N[C@H]1CC[C@H](NC(=O)c2cc(C3CC3)on2)CC1` [compound 11, 5-cyclopropyl-N-((1r,4r)-4-(3-(pyrrolidin-1-yl)propanamido)cyclohexyl)isoxazole-3-carboxamide]: the IC50 in assay [1] stood at 188 nM; in assay [2] it was 1970 nM.
For `NCCCN(C(=O)CCN)[C@H]1CC[C@H](NC(=O)c2cc(C3CC3)on2)CC1` [compound 33, N-((1r,4r)-4-(3-amino-N-(3-aminopropyl)propanamido)cyclohexyl)-5-cyclopropylisoxazole-3-carboxamide] the same measures were 428 nM and over 40000 nM.
As to `CCc1cc(C(=O)N[C@H]2CC[C@H](NC(=O)C[C@@H](C)N)C[C@H]2CC)no1` (mixture of isomers) [Cpd. No. 6, Mixture of N-((1S,2R,4S)-4-((R)-3-aminobutanamido)-2-ethylcyclohexyl)-5-ethylisoxazole-3-carboxamide and N-((1R,2S,4R)-4-((R)-3-aminobutanamido)-2-ethylcyclohexyl)-5-ethyl-isoxazole-3-carboxamide; (1S,2R,4S) isomer is depicted], the IC50 was determined as 97.3 nM in assay [1] and 964 nM in assay [2].
On to `C[C@@H](N)CC(=O)N[C@H]1CC[C@H](NC(=O)c2cc(C3CC3)on2)CC1` [compound 5, N-((1R,4r)-4-((R)-3-aminobutanamido)cyclohexyl)-5-cyclopropylisoxazole-3-carboxamide], for which the concentration for half-maximal inhibition (IC50) in assay [1] was found to be 400 nM; in assay [2], 10100 nM.
With `C[C@@H](N)CC(=O)N[C@H]1CC[C@H](NC(=O)c2cc(C3CC3)on2)[C@H](Cc2ccccc2)C1` (mixture of isomers) [Cpd. No. 39, Mixture of N-((1S,2R,4S)-4-((R)-3-aminobutanamido)-2-benzylcyclohexyl)-5-cyclopropylisoxazole-3-carboxamide and N-((1R,2S,4R)-4-((R)-3-aminobutanamido)-2-benzylcyclohexyl)-5-cyclopropylisoxazole-3-carboxamide; (1S,2R,4S) isomer is depicted.], the figures for the IC50 in assay [1] and in assay [2] were 28.6 nM and 255 nM, respectively.
For the molecule `N[C@H]1CC[C@H](C(=O)N[C@H]2CC[C@H](NC(=O)c3cc(C4CC4)on3)CC2)C1` [compound 32, N-((1S,4r)-4-((1S,3S)-3-aminocyclopentane-1-carboxamido)cyclohexyl)-5-cyclopropylisoxazole-3-carboxamide], the IC50 in assay [1] was determined as 562 nM; in assay [2] it was 5150 nM.
